Broadly, the IC50 is the concentration needed to halve the response being measured.

This passage reports IC50 results from patent US20160297833A1, “THIENOPYRIMIDINES AS MKNK1 AND MKNK2 INHIBITORS” (BAYER PHARMA AKTIENGESELLSCHAFT, priority 2013, published 2016).

In this experiment the target is T1, human full-length MKNK1 (Homo sapiens, UniProt Q9BUB5, T385D).
T1 construct: GST (N); purchased Carna Biosciences 02-145; host or cells: insect cells (baculovirus expression system)
Put plainly: MKNK1 kinase high ATP assay (TR-FRET). The class given is biochemical. The conditions noted are these: Table 1; MKNK1 kinase high ATP assay, 2 mM ATP; read-out: MKNK1 IC50. The gist of the method: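 Full-length human MKNK1 (T385D) preincubated 15 min at 22 °C with compound in HEPES pH 7.5/MgCl2/DTT buffer; reaction with 2 mM ATP (final) and 0.06 μM biotinylated peptide (final), 30 min at 22 °C.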
A general note: In TR-FRET formats the signal depends on donor and acceptor labels being close together.

T1 sequence (Q9BUB5 1-424 isoform Q9BUB5-2 T344D): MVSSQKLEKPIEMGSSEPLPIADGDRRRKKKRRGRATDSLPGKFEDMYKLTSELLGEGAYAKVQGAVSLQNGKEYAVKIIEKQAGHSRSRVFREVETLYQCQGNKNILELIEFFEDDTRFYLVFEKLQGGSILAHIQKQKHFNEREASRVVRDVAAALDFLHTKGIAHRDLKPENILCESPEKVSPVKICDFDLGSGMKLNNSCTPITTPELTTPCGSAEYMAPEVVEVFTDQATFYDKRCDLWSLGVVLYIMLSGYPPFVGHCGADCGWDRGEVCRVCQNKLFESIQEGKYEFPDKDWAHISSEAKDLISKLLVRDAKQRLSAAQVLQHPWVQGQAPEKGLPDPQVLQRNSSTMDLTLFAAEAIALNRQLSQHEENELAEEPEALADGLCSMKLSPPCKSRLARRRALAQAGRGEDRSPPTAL

Regarding `C[C@@H]1CN(C(=O)[C@H]2CCc3c(sc4ncnc(Nc5cc6cn[nH]c6cc5Br)c34)C2)C[C@@H](C)O1` [Example 233, {(7S)-4-[(6-Bromo-1H-indazol-5-yl)amino]-5,6,7,8-tetrahydro[1]benzothieno[2,3-d]pyrimidin-7-yl}[(2R,6R)-2,6-dimethylmorpholin-4-yl]methanone], the concentration for half-maximal inhibition (IC50) is 2.1 nM.

Regarding `C[C@@H]1CN(C(=O)[C@H]2CCc3c(sc4ncnc(Nc5cc6cn[nH]c6cc5Br)c34)C2)C[C@H](C)O1` [Example 234, {(7S)-4-[(6-Bromo-1H-indazol-5-yl)amino]-5,6,7,8-tetrahydro[1]benzothieno[2,3-d]pyrimidin-7-yl}[(2R,6S)-2,6-dimethylmorpholin-4-yl]methanone], the IC50 worked out at 3.4 nM.

For `C[C@H]1COCCN1C(=O)[C@H]1CCc2c(sc3ncnc(Nc4cc5cn[nH]c5cc4Br)c23)C1` [Example 235, {(7S)-4-[(6-Bromo-1H-indazol-5-yl)amino]-5,6,7,8-tetrahydro[1]benzothieno[2,3-d]pyrimidin-7-yl}[(3S)-3-methylmorpholin-4-yl]methanone], the concentration for half-maximal inhibition (IC50) was determined as 3.4 nM.

In the case of `C[C@H]1CN(C(=O)[C@H]2CCc3c(sc4ncnc(Nc5cc6cn[nH]c6cc5Br)c34)C2)C[C@H](C)O1` [Example 236, {(7S)-4-[(6-Bromo-1H-indazol-5-yl)amino]-5,6,7,8-tetrahydro[1]benzothieno[2,3-d]pyrimidin-7-yl}[(2S,6S)-2,6-dimethylmorpholin-4-yl]methanone], the IC50 is 14.6 nM.

In the case of `O=C([C@H]1CCc2c(sc3ncnc(Nc4cc5cn[nH]c5cc4Br)c23)C1)N1CCOCC1` [Example 237, {(7S)-4-[(6-Bromo-1H-indazol-5-yl)amino]-5,6,7,8-tetrahydro[1]benzothieno[2,3-d]pyrimidin-7-yl}(morpholin-4-yl)methanone], the half-maximal inhibitory concentration (IC50) worked out at 2.8 nM.

Turning to `COCCN(C)C(=O)[C@H]1CCc2c(sc3ncnc(Nc4cc5cn[nH]c5cc4Br)c23)C1` [Example 238, (7S)-4-[(6-Bromo-1H-indazol-5-yl)amino]-N-(2-methoxyethyl)-N-methyl-5,6,7,8-tetrahydro[1]benzothieno[2,3-d]pyrimidine-7-carboxamide], the IC50 was found to be 3.8 nM.

As to `C[C@H]1CN(C(=O)[C@H]2CCc3c(sc4ncnc(Nc5cc6cn[nH]c6cc5N(C)C)c34)C2)C[C@H](C)O1` [Example 239, [(7S)-4-{[6-(Dimethylamino)-1H-indazol-5-yl]amino}-5,6,7,8-tetrahydro[1]benzothieno[2,3-d]pyrimidin-7-yl][(2S,6S)-2,6-dimethylmorpholin-4-yl]methanone], the 50% inhibitory concentration (IC50) worked out at 0.3 nM.

`C[C@@H]1CN(C(=O)[C@H]2CCc3c(sc4ncnc(Nc5cc6cn[nH]c6cc5N(C)C)c34)C2)C[C@@H](C)O1` [Example 240, [(7S)-4-{[6-(Dimethylamino)-1H-indazol-5-yl]amino}-5,6,7,8-tetrahydro[1]benzothieno[2,3-d]pyrimidin-7-yl][(2R,6R)-2,6-dimethylmorpholin-4-yl]methanone]: the half-maximal inhibitory concentration (IC50) was determined as 0.2 nM.

Take `CN(CCC(F)(F)F)C(=O)[C@H]1CCc2c(sc3ncnc(Nc4cc5cn[nH]c5cc4N(C)C)c23)C1` [Example 241, (7S)-4-{[6-(Dimethylamino)-1H-indazol-5-yl]amino}-N-methyl-N-(3,3,3-trifluoropropyl)-5,6,7,8-tetrahydro[1]benzothieno[2,3-d]pyrimidine-7-carboxamide]: the IC50 was determined as 0.2 nM.

With `CN(C)C(=O)[C@H]1CCc2c(sc3ncnc(Nc4cc5cn[nH]c5cc4N(C)CCC(C)(C)O)c23)C1` [Example 242, (7S)-4-({6-[(3-Hydroxy-3-methylbutyl)(methyl)amino]-1H-indazol-5-yl}amino)-N,N-dimethyl-5,6,7,8-tetrahydro[1]benzothieno[2,3-d]pyrimidine-7-carboxamide], the IC50 is 20.3 nM.

In the case of `CN(C)C(=O)[C@H]1CCc2c(sc3ncnc(Nc4cc5cn[nH]c5cc4N(C)CCNC(=O)OC(C)(C)C)c23)C1` [Example 243, tert-butyl {2-[(5-{[(7S)-7-(Dimethylcarbamoyl)-5,6,7,8-tetrahydro[1]benzothieno[2,3-d]pyrimidin-4-yl]amino}-1H-indazol-6-yl)(methyl)amino]ethyl}carbamate], the 50% inhibitory concentration (IC50) is 1.6 nM.

For `CN(C)C(=O)[C@H]1CCc2c(sc3ncnc(Nc4cc5cn[nH]c5cc4NCCNC(=O)OC(C)(C)C)c23)C1` [Example 244, tert-Butyl {2-[(5-{[(7S)-7-(dimethylcarbamoyl)-5,6,7,8-tetrahydro[1]benzothieno[2,3-d]pyrimidin-4-yl]amino}-1H-indazol-6-yl)amino]ethyl}carbamate], the concentration for half-maximal inhibition (IC50) amounted to 48.3 nM.

Take `CN(CCC(F)(F)F)C(=O)[C@H]1CCc2c(sc3ncnc(Nc4cc5cn[nH]c5cc4N4CCCC4)c23)C1` [Example 245, (7S)—N-Methyl-4-{[6-(pyrrolidin-1-yl)-1H-indazol-5-yl]amino}-N-(3,3,3-trifluoropropyl)-5,6,7,8-tetrahydro[1]benzothieno[2,3-d]pyrimidine-7-carboxamide]: the half-maximal inhibitory concentration (IC50) stood at 0.6 nM.

`CSc1cc2[nH]ncc2cc1Nc1ncnc2sc3c(c12)CC[C@H](C(=O)N1C[C@H](C)O[C@@H](C)C1)C3` [Example 246, [(2S,6S)-2,6-Dimethylmorpholin-4-yl][(7S)-4-{[6-(methylsulfanyl)-1H-indazol-5-yl]amino}-5,6,7,8-tetrahydro[1]benzothieno[2,3-d]pyrimidin-7-yl]methanone]: the concentration for half-maximal inhibition (IC50) came out at 5.3 nM.

For `CSc1cc2[nH]ncc2cc1Nc1ncnc2sc3c(c12)CC[C@H](C(=O)N1C[C@@H](C)O[C@H](C)C1)C3` [Example 247, [(2R,6R)-2,6-Dimethylmorpholin-4-yl][(7S)-4-{[6-(methylsulfanyl)-1H-indazol-5-yl]amino}-5,6,7,8-tetrahydro[1]benzothieno[2,3-d]pyrimidin-7-yl]methanone], the 50% inhibitory concentration (IC50) turned out to be 0.6 nM.

For the compound `CSc1cc2[nH]ncc2cc1Nc1ncnc2sc3c(c12)CC[C@H](C(=O)N1CCOC[C@H]1C)C3` [Example 248, [(3R)-3-Methylmorpholin-4-yl][(7S)-4-{[6-(methylsulfanyl)-1H-indazol-5-yl]amino}-5,6,7,8-tetrahydro[1]benzothieno[2,3-d]pyrimidin-7-yl]methanone], the 50% inhibitory concentration (IC50) is 2.2 nM.

As for `CSc1cc2[nH]ncc2cc1Nc1ncnc2sc3c(c12)CC[C@H](C(=O)N(C)CCC(F)(F)F)C3` [Example 249, (7S)—N-Methyl-4-{[6-(methylsulfanyl)-1H-indazol-5-yl]amino}-N-(3,3,3-trifluoropropyl)-5,6,7,8-tetrahydro[1]benzothieno[2,3-d]pyrimidine-7-carboxamide], the IC50 was 2.3 nM.

For `CSc1cc2[nH]ncc2cc1Nc1ncnc2sc3c(c12)CC[C@H](C(=O)N1CCC1)C3` [Example 250, Azetidin-1-yl[(7S)-4-{[6-(methylsulfanyl)-1H-indazol-5-yl]amino}-5,6,7,8-tetrahydro[1]benzothieno[2,3-d]pyrimidin-7-yl]methanone], the IC50 worked out at 2.8 nM.

For the compound `CSc1cc2[nH]ncc2cc1Nc1ncnc2sc3c(c12)CC[C@H](C(=O)N(C)C(C)C)C3` [Example 251, (7S)—N-Methyl-4-{[6-(methylsulfanyl)-1H-indazol-5-yl]amino}-N-(propan-2-yl)-5,6,7,8-tetrahydro[1]benzothieno[2,3-d]pyrimidine-7-carboxamide], the IC50 was 1.5 nM.

As for `CSc1cc2[nH]ncc2cc1Nc1ncnc2sc3c(c12)CC[C@H](C(=O)N1C[C@@H](C)O[C@@H](C)C1)C3` [Example 252, [(2R,6S)-2,6-Dimethylmorpholin-4-yl][(7S)-4-{[6-(methylsulfanyl)-1H-indazol-5-yl]amino}-5,6,7,8-tetrahydro[1]benzothieno[2,3-d]pyrimidin-7-yl]methanone], the half-inhibitory concentration (IC50) amounted to 1.5 nM.

For `COCCN(C)C(=O)[C@H]1CCc2c(sc3ncnc(Nc4cc5cn[nH]c5cc4SC)c23)C1` [Example 253, (7S)—N-(2-Methoxyethyl)-N-methyl-4-{[6-(methylsulfanyl)-1H-indazol-5-yl]amino}-5,6,7,8-tetrahydro[1]benzothieno[2,3-d]pyrimidine-7-carboxamide], the half-maximal inhibitory concentration (IC50) was determined as 1.9 nM.

For the compound `CSc1cc2[nH]ncc2cc1Nc1ncnc2sc3c(c12)CC[C@H](C(=O)N1CCOC[C@@H]1C)C3` [Example 254, [(3S)-3-Methylmorpholin-4-yl][(7S)-4-{[6-(methylsulfanyl)-1H-indazol-5-yl]amino}-5,6,7,8-tetrahydro[1]benzothieno[2,3-d]pyrimidin-7-yl]methanone], the concentration for half-maximal inhibition (IC50) came out at 1.3 nM.

In the case of `CSc1cc2[nH]ncc2cc1Nc1ncnc2sc3c(c12)CC[C@H](C(=O)N1CCOCC1)C3` [Example 255, [(7S)-4-{[6-(Methylsulfanyl)-1H-indazol-5-yl]amino}-5,6,7,8-tetrahydro[1]benzothieno[2,3-d]pyrimidin-7-yl](morpholin-4-yl)methanone], the IC50 was 2 nM.

Take `CN(C)C(=O)[C@H]1CCc2c(sc3ncnc(Nc4cc5cn[nH]c5cc4OCCN(C)C(=O)OC(C)(C)C)c23)C1` [Example 256, tert-Butyl {2-[(5-{[(7S)-7-(dimethylcarbamoyl)-5,6,7,8-tetrahydro[1]benzothieno[2,3-d]pyrimidin-4-yl]amino}-1H-indazol-6-yl)oxy]ethyl}methylcarbamate]: the half-maximal inhibitory concentration (IC50) worked out at 43.3 nM.

Turning to `CN(C)C(=O)[C@H]1CCc2c(sc3ncnc(Nc4cc5cn[nH]c5cc4OCCNC(=O)C(C)(C)C)c23)C1` [Example 257, (7S)-4-[(6-{2-[(2,2-Dimethylpropanoyl)amino]ethoxy}-1H-indazol-5-yl)amino]-N, N-dimethyl-5,6,7,8-tetrahydro[1]benzothieno[2,3-d]pyrimidine-7-carboxamide], the IC50 stood at 2.4 nM.

In the case of `COC(=O)NCCOc1cc2[nH]ncc2cc1Nc1ncnc2sc3c(c12)CC[C@H](C(=O)N(C)C)C3` [Example 258, Methyl {2-[(5-{[(7S)-7-(dimethylcarbamoyl)-5,6,7,8-tetrahydro[1]benzothieno[2,3-d]pyrimidin-4-yl]amino}-1H-indazol-6-yl)oxy]ethyl}carbamate], the IC50 came to 0.4 nM.
